In PMC6136660 (Steroids, 2018):

Key:
[1] = Aqueous solubility (statement); format: physicochemical; details: aqueous solutions
[2] = tested on: blood glucose (insulin resistance biomarker); assay: Blood glucose / fasting insulin, MAD; format: in vivo, human; details: for Blood glucose: mean±SEM
Experimental: All biomarkers were analyzed using standard immunoassays by PRA.
Glucocorticoids were originally named as such due to their potent and acute effects on glucose metabolism, where liver and muscle pathways for insulin signaling are rapidly and profoundly affected, creating a state of insulin resistance. […] Fasting insulin and glucose levels were assessed in all dose groups in the vamorolone Phase 1 SAD and MAD.

SMILES: C[C@@H]1C[C@H]2[C@@H]3CCC4=CC(=O)C=C[C@]4(C)C3=CC[C@]2(C)[C@@]1(O)C(=O)CO [vamorolone]
- solubility [1]: very poor solubility in aqueous solutions
- Blood glucose ([2]; MAD 1.0 mg/kg, Day 1 (predose), baseline): 86 ± 1 md/dL
- Blood glucose ([2]; MAD 1.0 mg/kg, Day 2 predose): 87 ± 2 md/dL
- Blood glucose ([2]; MAD 1.0 mg/kg, Day 3 predose): 86 ± 2 md/dL
- Blood glucose ([2]; MAD 1.0 mg/kg, Day 7 predose): 84 ± 2 md/dL
- Blood glucose ([2]; MAD 1.0 mg/kg, Day 12 predose): 83 ± 1 md/dL
- Blood glucose ([2]; MAD 1.0 mg/kg, Day 14 (predose)): 84 ± 1 md/dL
- Blood glucose ([2]; MAD 1.0 mg/kg, Day 17 (3 days after last dose)): 86 ± 1 md/dL
- Blood glucose ([2]; MAD 1.0 mg/kg, Day 21 follow-up): 90 ± 3 md/dL
- Blood glucose ([2]; MAD 1.0 mg/kg, Day -1, baseline): 90 ± 2 md/dL
- Blood glucose ([2]; MAD 1.0 mg/kg, Screening, baseline): 92 ± 1 md/dL
- Blood glucose ([2]; MAD 3.0 mg/kg, Day 1 (predose), baseline): 87 ± 1 md/dL
- Blood glucose ([2]; MAD 3.0 mg/kg, Day 2 predose): 87 ± 1 md/dL
- Blood glucose ([2]; MAD 3.0 mg/kg, Day 3 predose): 84 ± 2 md/dL
- Blood glucose ([2]; MAD 3.0 mg/kg, Day 7 predose): 82 ± 1 md/dL
- Blood glucose ([2]; MAD 3.0 mg/kg, Day 12 predose): 83.1 ± 1.4 md/dL
- Blood glucose ([2]; MAD 3.0 mg/kg, Day 14 (predose)): 81 ± 2 md/dL
- Blood glucose ([2]; MAD 3.0 mg/kg, Day 17 (3 days after last dose)): 84 ± 1 md/dL
- Blood glucose ([2]; MAD 3.0 mg/kg, Day 21 follow-up): 91 ± 2 md/dL
- Blood glucose ([2]; MAD 3.0 mg/kg, Day -1, baseline): 90 ± 1 md/dL
- Blood glucose ([2]; MAD 3.0 mg/kg, Screening, baseline): 90.1 ± 1.5 md/dL
- Blood glucose ([2]; MAD 9.0 mg/kg, Day 1 (predose), baseline): 89 ± 2 md/dL
- Blood glucose ([2]; MAD 9.0 mg/kg, Day 2 predose): 87 ± 1 md/dL
- Blood glucose ([2]; MAD 9.0 mg/kg, Day 3 predose): 88 ± 2 md/dL
- Blood glucose ([2]; MAD 9.0 mg/kg, Day 7 predose): 87 ± 2 md/dL
- Blood glucose ([2]; MAD 9.0 mg/kg, Day 12 predose): 84 ± 2 md/dL
- Blood glucose ([2]; MAD 9.0 mg/kg, Day 14 (predose)): 84 ± 2 md/dL
- Blood glucose ([2]; MAD 9.0 mg/kg, Day 17 (3 days after last dose)): 85 ± 2 md/dL
- Blood glucose ([2]; MAD 9.0 mg/kg, Day 21 follow-up): 88 ± 2 md/dL
- Blood glucose ([2]; MAD 9.0 mg/kg, Day -1, baseline): 89 ± 1 md/dL
- Blood glucose ([2]; MAD 9.0 mg/kg, Screening, baseline): 89 ± 3 md/dL
- Blood glucose ([2]; MAD 20.0 mg/kg, Day 1 (predose), baseline): 87 ± 1 md/dL
- Blood glucose ([2]; MAD 20.0 mg/kg, Day 2 predose): 84 ± 1 md/dL
- Blood glucose ([2]; MAD 20.0 mg/kg, Day 3 predose): 83 ± 1 md/dL
- Blood glucose ([2]; MAD 20.0 mg/kg, Day 7 predose): 82 ± 1 md/dL
- Blood glucose ([2]; MAD 20.0 mg/kg, Day 12 predose): 80 ± 2 md/dL
- Blood glucose ([2]; MAD 20.0 mg/kg, Day 14 (predose)): 80 ± 2 md/dL
- Blood glucose ([2]; MAD 20.0 mg/kg, Day 17 (3 days after last dose)): 81 ± 2 md/dL
- Blood glucose ([2]; MAD 20.0 mg/kg, Day 21 follow-up): 91 ± 3 md/dL
- Blood glucose ([2]; MAD 20.0 mg/kg, Day -1, baseline): 89 ± 1 md/dL
- Blood glucose ([2]; MAD 20.0 mg/kg, Screening, baseline): 90 ± 3 md/dL
- fasting insulin and glucose levels vs placebo ([2]; all dose groups SAD and MAD, any time point): did not differ from placebo
